Laboratory results taken from BindingDB's records for doi:10.1021/ml400370w (The Scripps Research Institute, 2014).
pIC50: −log10 of the molar value. Values belong to the compound of their own block, whether it stands above or below them.

Experiment: Antagonist activity against CCR5 receptor in human TZM-bl cells assessed as inhibition of HIV-1 JR-FL-induced cell-cell fusion between viral envelope protein expressing human HEK293 cells to TZM-bl cells after 48 hrs by luciferase reporter gene assay

Structure (SMILES): Cc1nnc(CCCCCCCCCCN=[N+]=[N-])n1C1CC2CCC(C1)N2CC[C@H](NC(=O)C1CCC(F)(F)CC1)c1ccccc1 (stereo partly specified)
- pIC50: 9.02

Structure (SMILES): Cc1nnc(C(C)C)n1C1CC2CCC(C1)N2CC[C@H](NC(=O)COCCOCCOCCN=[N+]=[N-])c1ccccc1 (stereo partly specified)
- pIC50: < 6.00

Structure (SMILES): Cc1nnc(C(C)C)n1C1CC2CCC(C1)N2CC[C@H](NC(=O)CCCCCCCCCCN=[N+]=[N-])c1ccccc1 (stereo partly specified)
- pIC50: 6.44

Next, values leading:

- pIC50: 8.52
Structure (SMILES): Cc1nnc(CCCCCCCCCCn2cc(COCCOCCOCCOCCOCc3ccc(C(=O)NCCCNC(=O)OC(C)(C)C)cc3)nn2)n1C1CC2CCC(C1)N2CC[C@H](NC(=O)C1CCC(F)(F)CC1)c1ccccc1 (stereo partly specified)

- pIC50: 8.59
Structure (SMILES): Cc1nnc(CCCCCCCCCCn2cc(COCCOCCOCCOCCOCc3ccc(C(=O)N4CCC4=O)cc3)nn2)n1C1CC2CCC(C1)N2CC[C@H](NC(=O)C1CCC(F)(F)CC1)c1ccccc1 (stereo partly specified)

- pIC50: 7.57
Structure (SMILES): Cc1nnc(C(C)C)n1C1CC2CCC(C1)N2CC[C@H](NC(=O)CCCCCCCCCCn1cc(COCCOCCOCCOCCOCc2ccc(C(=O)N3CCC3=O)cc2)nn1)c1ccccc1 (stereo partly specified)
